Measured values taken from patent publication US20230270713A1, “Administration of Resiniferatoxin For Treatment of Bladder Pain or Bladder Cancer” (Sorrento Therapeutics, Inc., priority 2020, published 2023).
Where “and” joins values, the source holds several entries; their conditions need not be identical. Identical values can stand only once. Like-named read-outs stand apart in the source and are kept apart here.

Legend:
[1] = Pharmacokinetic/toxicokinetic profile of RTX after intravesical instillation in dogs; assay type: in vivo, dog
Description: Local tolerance and the pharmacokinetic (PK), and toxicokinetic (TK) profile of RTX in dogs was determined after a single instillation of RTX into the bladder of dogs (n=6). The RTX formulations were prepared using aseptic techniques in a biological safety cabinet (BSC) by mixing the appropriate amount of diluent with the appropriate amount of RTX. Dosing formulation concentrations used were 1 and 10 mcg/mL.
Three male and three female dogs ranging in weight from 5.95 to 8.60 kg were used in the study. The dogs were assigned into Group 1 (receiving a dose of 1 mcg/mL RTX) or Group 2 (receiving a dose of 10 mcg/mL RTX) as shown in the Table 3 below.
RTX was administered via intravesical instillation into the urinary bladder. The animals were given a single dose of 25 or 250 mcg/dose in a total volume of 25 mL on Day 1 over a period of 1 hour (±5 minutes). RTX and diluent were administered to the dogs under general anesthesia via a Foley catheter placed into the bladder for 1 hour (±5 minutes).
Blood samples were collected from all animals on Day 1 pre-dose and at 0.5, 1, 2, 4, 6, 12, 24, 36, 48, 60, and 72 hours post-dose. The toxicokinetic (TK) parameters were determined for RTX, and if appropriate, the metabolites, from mean concentration-time data.
Cmax is the observed maximum plasma concentration from the start of dosing. Tmax is the time to reach the Cmax. AUC(0-T) is the area under the plasma concentration-time curve from time zero to the last measurable time point calculated by the linear trapezoidal rule.

[2] = test system: CGRP and SP nerve fibers innervating dog bladder; assay: Density of CGRP and SP axons in canine bladder (IHC, confocal); assay type: in vivo; settings: dogs
Description: Canine bladders from a healthy dog (control) and from dogs with intravesical application of resiniferatoxin (RTX) at 2 different doses (25 mcg and 250 mcg) were prepared for immunohistochemistry and confocal laser microscopy to quantify the axons expressing substance P (SP) and calcitonin-gene related peptide (CGRP). Confocal images were obtained at 40× magnification using a Carl Zeiss scanning confocal laser microscope (model LSM 800, Jena, Germany) with Z-stack function.

[3] = male dogs 1003, 1005 individual, 250 mcg intravesical
[4] = male dogs, 250 mcg intravesical

Q: Which results are given for C=C(C)[C@]12C[C@@H](C)[C@@]34O[C@](Cc5ccccc5)(O[C@@H]1[C@@H]3C=C(COC(=O)Cc1ccc(O)c(OC)c1)C[C@]1(O)C(=O)C(C)=C[C@@H]41)O2 [RTX, resiniferatoxin]?
A: Plasma concentration of RTX ([1]; male dog 1001, 25 mcg intravesical, 0.5 h): BQL (*BQL—Below quantifiable limit (<50.0 pg/mL); adequate signal-to-noise enabled reporting value as estimate); Plasma concentration of RTX ([1]; male dog 1001, 25 mcg intravesical, 2 h): BQL (*BQL—Below quantifiable limit (<50.0 pg/mL); adequate signal-to-noise enabled reporting value as estimate); Plasma concentration of RTX ([1]; male dog 1001, 25 mcg intravesical, 4 h): BQL (*BQL—Below quantifiable limit (<50.0 pg/mL); adequate signal-to-noise enabled reporting value as estimate); Plasma concentration of RTX ([1]; male dog 1001, 25 mcg intravesical, 6 h): BQL (*BQL—Below quantifiable limit (<50.0 pg/mL); adequate signal-to-noise enabled reporting value as estimate); Plasma concentration of RTX ([1]; male dog 1001, 25 mcg intravesical, 12 h): BQL (*BQL—Below quantifiable limit (<50.0 pg/mL); adequate signal-to-noise enabled reporting value as estimate); Plasma concentration of RTX ([1]; male dog 1001, 25 mcg intravesical, 24 h): BQL (*BQL—Below quantifiable limit (<50.0 pg/mL); adequate signal-to-noise enabled reporting value as estimate); Plasma concentration of RTX ([1]; male dog 1001, 25 mcg intravesical, 36 h): BQL (*BQL—Below quantifiable limit (<50.0 pg/mL); adequate signal-to-noise enabled reporting value as estimate); Plasma concentration of RTX ([1]; male dog 1001, 25 mcg intravesical, 48 h): BQL (*BQL—Below quantifiable limit (<50.0 pg/mL); adequate signal-to-noise enabled reporting value as estimate); Plasma concentration of RTX ([1]; male dog 1001, 25 mcg intravesical, 60 h): BQL (*BQL—Below quantifiable limit (<50.0 pg/mL); adequate signal-to-noise enabled reporting value as estimate); Plasma concentration of RTX ([1]; male dog 1001, 25 mcg intravesical, 72 h): BQL (*BQL—Below quantifiable limit (<50.0 pg/mL); adequate signal-to-noise enabled reporting value as estimate); Plasma concentration of RTX ([1]; male dog 1001, 25 mcg intravesical, Predose): BQL (*BQL—Below quantifiable limit (<50.0 pg/mL); adequate signal-to-noise enabled reporting value as estimate); AUC(0-T) [1, 3]: 0.365 ng·h/mL; AUC(0-T)/Dose [1, 3]: 1.42 pg·h/mL/µg and 1.46 pg·h/mL/µg; Cmax [1, 3]: 0.44 ng/mL; Cmax/Dose [1, 3]: 1.06 pg/mL/µg and 1.76 pg/mL/µg; Plasma concentration of RTX ([1]; male dogs 1003, 1005 individual, 250 mcg intravesical, 0.5 h): 0.44 ng/mL; Plasma concentration of RTX ([1]; male dogs 1003, 1005 individual, 250 mcg intravesical, 1 h): 0.151 ng/mL; Plasma concentration of RTX ([1]; male dogs 1003, 1005 individual, 250 mcg intravesical, 2 h): 0.0633 ng/mL; Plasma concentration of RTX ([1]; male dogs 1003, 1005 individual, 250 mcg intravesical, 4 h): 0 ng/mL; Plasma concentration of RTX ([1]; male dogs 1003, 1005 individual, 250 mcg intravesical, 6 h): 0 ng/mL; Plasma concentration of RTX ([1]; male dogs 1003, 1005 individual, 250 mcg intravesical, 12 h): 0 ng/mL; Plasma concentration of RTX ([1]; male dogs 1003, 1005 individual, 250 mcg intravesical, 24 h): 0 ng/mL; Plasma concentration of RTX ([1]; male dogs 1003, 1005 individual, 250 mcg intravesical, 36 h): 0 ng/mL; Plasma concentration of RTX ([1]; male dogs 1003, 1005 individual, 250 mcg intravesical, 48 h): 0 ng/mL; Plasma concentration of RTX ([1]; male dogs 1003, 1005 individual, 250 mcg intravesical, 60 h): 0 ng/mL; Plasma concentration of RTX ([1]; male dogs 1003, 1005 individual, 250 mcg intravesical, 72 h): 0 ng/mL; Plasma concentration of RTX ([1]; male dogs 1003, 1005 individual, 250 mcg intravesical, Predose): 0 ng/mL; AUC(0-T)/Dose, Mean [1, 4]: 1.44 pg·h/mL/µg; Cmax/Dose, Mean [1, 4]: 1.41 pg/mL/µg; Plasma concentration of RTX, Mean ([1]; male dogs, 250 mcg intravesical, Predose): 0 ng/mL; AUC(0-t) ([1]; male, dog, plasma, 250 ug, male dogs 1003, 1005 individual, 250 mcg intravesical, read-out: AUC(0-T)): 0.356 ng·h/mL; Cmax ([1]; male, dog, plasma, 250 ug, male dogs 1003, 1005 individual, 250 mcg intravesical, read-out: Cmax): 0.264 ng/mL; Tmax ([1]; male, dog, plasma, 250 ug, male dogs 1003, 1005 individual, 250 mcg intravesical, read-out: Tmax): 60 min; AUC(0-t) ([1]; male, dog, plasma, 250 ug, male dogs, 250 mcg intravesical, read-out: AUC(0-T), Mean): 0.361 ± 0.00636 ng·h/mL; Cmax ([1]; male, dog, plasma, 250 ug, male dogs, 250 mcg intravesical, read-out: Cmax, Mean): 0.352 ± 0.124 ng/mL; Tmax ([1]; male, dog, plasma, 250 ug, male dogs, 250 mcg intravesical, read-out: Tmax, Mean): 45 ± 21.2 min; Tmax ([1]; male, dog, plasma, other: intravesical instillation, 250 ug, male dogs, 250 mcg intravesical, read-out: Tmax, Mean): 45 min; concentration at 1 h ([1]; male, dog, plasma, other: intravesical instillation, 25 mcg, male dog 1001, 25 mcg intravesical, 1 h, read-out: Plasma concentration of RTX): 0.0155 ng/mL; concentration at 0.5 h ([1]; male, dog, plasma, other: intravesical instillation, 250 mcg, male dogs 1003, 1005 individual, 250 mcg intravesical, 0.5 h, read-out: Plasma concentration of RTX): 0.257 ng/mL; concentration at 1 h ([1]; male, dog, plasma, other: intravesical instillation, 250 mcg, male dogs 1003, 1005 individual, 250 mcg intravesical, 1 h, read-out: Plasma concentration of RTX): 0.264 ng/mL; concentration at 2 h ([1]; male, dog, plasma, other: intravesical instillation, 250 mcg, male dogs 1003, 1005 individual, 250 mcg intravesical, 2 h, read-out: Plasma concentration of RTX): 0.0597 ng/mL; concentration at 4 h ([1]; male, dog, plasma, other: intravesical instillation, 250 mcg, male dogs 1003, 1005 individual, 250 mcg intravesical, 4 h, read-out: Plasma concentration of RTX): 0 ng/mL; concentration at 6 h ([1]; male, dog, plasma, other: intravesical instillation, 250 mcg, male dogs 1003, 1005 individual, 250 mcg intravesical, 6 h, read-out: Plasma concentration of RTX): 0 ng/mL; concentration at 12 h ([1]; male, dog, plasma, other: intravesical instillation, 250 mcg, male dogs 1003, 1005 individual, 250 mcg intravesical, 12 h, read-out: Plasma concentration of RTX): 0 ng/mL; concentration at 24 h ([1]; male, dog, plasma, other: intravesical instillation, 250 mcg, male dogs 1003, 1005 individual, 250 mcg intravesical, 24 h, read-out: Plasma concentration of RTX): 0 ng/mL; concentration at 36 h ([1]; male, dog, plasma, other: intravesical instillation, 250 mcg, male dogs 1003, 1005 individual, 250 mcg intravesical, 36 h, read-out: Plasma concentration of RTX): 0 ng/mL; concentration at 48 h ([1]; male, dog, plasma, other: intravesical instillation, 250 mcg, male dogs 1003, 1005 individual, 250 mcg intravesical, 48 h, read-out: Plasma concentration of RTX): 0 ng/mL; concentration at 60 h ([1]; male, dog, plasma, other: intravesical instillation, 250 mcg, male dogs 1003, 1005 individual, 250 mcg intravesical, 60 h, read-out: Plasma concentration of RTX): 0 ng/mL; concentration at 72 h ([1]; male, dog, plasma, other: intravesical instillation, 250 mcg, male dogs 1003, 1005 individual, 250 mcg intravesical, 72 h, read-out: Plasma concentration of RTX): 0 ng/mL; concentration at 0.5 h ([1]; male, dog, plasma, other: intravesical instillation, 250 mcg, male dogs, 250 mcg intravesical, 0.5 h, read-out: Plasma concentration of RTX, Mean): 0.349 ng/mL; concentration at 1 h ([1]; male, dog, plasma, other: intravesical instillation, 250 mcg, male dogs, 250 mcg intravesical, 1 h, read-out: Plasma concentration of RTX, Mean): 0.208 ng/mL; concentration at 2 h ([1]; male, dog, plasma, other: intravesical instillation, 250 mcg, male dogs, 250 mcg intravesical, 2 h, read-out: Plasma concentration of RTX, Mean): 0.0615 ng/mL; concentration at 4 h ([1]; male, dog, plasma, other: intravesical instillation, 250 mcg, male dogs, 250 mcg intravesical, 4 h, read-out: Plasma concentration of RTX, Mean): 0 ng/mL; concentration at 6 h ([1]; male, dog, plasma, other: intravesical instillation, 250 mcg, male dogs, 250 mcg intravesical, 6 h, read-out: Plasma concentration of RTX, Mean): 0 ng/mL; concentration at 12 h ([1]; male, dog, plasma, other: intravesical instillation, 250 mcg, male dogs, 250 mcg intravesical, 12 h, read-out: Plasma concentration of RTX, Mean): 0 ng/mL; concentration at 24 h ([1]; male, dog, plasma, other: intravesical instillation, 250 mcg, male dogs, 250 mcg intravesical, 24 h, read-out: Plasma concentration of RTX, Mean): 0 ng/mL; concentration at 36 h ([1]; male, dog, plasma, other: intravesical instillation, 250 mcg, male dogs, 250 mcg intravesical, 36 h, read-out: Plasma concentration of RTX, Mean): 0 ng/mL; concentration at 48 h ([1]; male, dog, plasma, other: intravesical instillation, 250 mcg, male dogs, 250 mcg intravesical, 48 h, read-out: Plasma concentration of RTX, Mean): 0 ng/mL; concentration at 60 h ([1]; male, dog, plasma, other: intravesical instillation, 250 mcg, male dogs, 250 mcg intravesical, 60 h, read-out: Plasma concentration of RTX, Mean): 0 ng/mL; concentration at 72 h ([1]; male, dog, plasma, other: intravesical instillation, 250 mcg, male dogs, 250 mcg intravesical, 72 h, read-out: Plasma concentration of RTX, Mean): 0 ng/mL; CGRP and SP axons innervating the bladder body ([2]; 25 mcg and 250 mcg intravesical, vs control dog): drastic reduction; density of CGRP and SP nerve fibers innervating the body, trigon, and fundus ([2]; 25 mcg and 250 mcg, vs control tissue): reduced; effect of 250 mcg in reducing density of CGRP and SP compared with 25 mcg ([2]; 250 mcg vs 25 mcg): greater effect
